Experimental data: ChEMBL document CHEMBL2040748, “N-4-t-Butylbenzyl 2-(4-methylsulfonylaminophenyl) propanamide TRPV1 antagonists: Structure-activity relationships in the A-region” (Bioorg Med Chem, 2012); call rule not given here

Assays:
[1] = target: Transient receptor potential cation channel subfamily V member 1 (Rattus norvegicus) (UniProt O35433); experiment: Antagonist activity at rat TRPV1 receptor expressed in CHO cells assessed as decrease in capsaicin-induced intracellular 45Ca2+ uptake after 1 hr by […] analysis relative to untreated control; type: functional, cell-based
Sequence of Transient receptor potential cation channel subfamily V member 1 (Rattus norvegicus) (O35433 whole entry): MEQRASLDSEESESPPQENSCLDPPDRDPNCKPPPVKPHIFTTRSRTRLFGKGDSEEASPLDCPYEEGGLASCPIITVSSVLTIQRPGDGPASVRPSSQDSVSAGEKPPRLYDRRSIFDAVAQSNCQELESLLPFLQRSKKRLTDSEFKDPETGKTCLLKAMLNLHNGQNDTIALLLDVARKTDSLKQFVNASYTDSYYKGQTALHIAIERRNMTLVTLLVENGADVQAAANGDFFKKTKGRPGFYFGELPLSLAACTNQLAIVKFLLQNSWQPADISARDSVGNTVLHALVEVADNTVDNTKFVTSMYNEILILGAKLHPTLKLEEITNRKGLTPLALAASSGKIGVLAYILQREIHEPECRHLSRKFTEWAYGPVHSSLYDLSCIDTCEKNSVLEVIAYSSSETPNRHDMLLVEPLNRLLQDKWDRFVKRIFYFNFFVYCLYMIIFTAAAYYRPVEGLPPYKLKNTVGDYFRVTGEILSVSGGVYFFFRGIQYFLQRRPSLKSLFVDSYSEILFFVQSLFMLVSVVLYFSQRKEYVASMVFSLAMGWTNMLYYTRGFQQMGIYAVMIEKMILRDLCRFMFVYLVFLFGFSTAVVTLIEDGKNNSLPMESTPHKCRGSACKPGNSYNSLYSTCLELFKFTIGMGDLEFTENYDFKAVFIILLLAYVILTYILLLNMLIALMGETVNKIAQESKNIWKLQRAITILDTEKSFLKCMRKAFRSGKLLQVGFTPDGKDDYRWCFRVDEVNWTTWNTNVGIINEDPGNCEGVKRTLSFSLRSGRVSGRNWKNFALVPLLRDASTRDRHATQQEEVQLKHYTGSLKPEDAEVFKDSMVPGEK

[2] = target: T1, Transient receptor potential cation channel subfamily V member 1 (Homo sapiens, UniProt Q8NER1); experiment: Displacement of [3H]RTX from human TRPV1 receptor expressed in CHO cells after 60 mins by scintillation counting; type: cell-based
T1 sequence (Q8NER1 whole entry): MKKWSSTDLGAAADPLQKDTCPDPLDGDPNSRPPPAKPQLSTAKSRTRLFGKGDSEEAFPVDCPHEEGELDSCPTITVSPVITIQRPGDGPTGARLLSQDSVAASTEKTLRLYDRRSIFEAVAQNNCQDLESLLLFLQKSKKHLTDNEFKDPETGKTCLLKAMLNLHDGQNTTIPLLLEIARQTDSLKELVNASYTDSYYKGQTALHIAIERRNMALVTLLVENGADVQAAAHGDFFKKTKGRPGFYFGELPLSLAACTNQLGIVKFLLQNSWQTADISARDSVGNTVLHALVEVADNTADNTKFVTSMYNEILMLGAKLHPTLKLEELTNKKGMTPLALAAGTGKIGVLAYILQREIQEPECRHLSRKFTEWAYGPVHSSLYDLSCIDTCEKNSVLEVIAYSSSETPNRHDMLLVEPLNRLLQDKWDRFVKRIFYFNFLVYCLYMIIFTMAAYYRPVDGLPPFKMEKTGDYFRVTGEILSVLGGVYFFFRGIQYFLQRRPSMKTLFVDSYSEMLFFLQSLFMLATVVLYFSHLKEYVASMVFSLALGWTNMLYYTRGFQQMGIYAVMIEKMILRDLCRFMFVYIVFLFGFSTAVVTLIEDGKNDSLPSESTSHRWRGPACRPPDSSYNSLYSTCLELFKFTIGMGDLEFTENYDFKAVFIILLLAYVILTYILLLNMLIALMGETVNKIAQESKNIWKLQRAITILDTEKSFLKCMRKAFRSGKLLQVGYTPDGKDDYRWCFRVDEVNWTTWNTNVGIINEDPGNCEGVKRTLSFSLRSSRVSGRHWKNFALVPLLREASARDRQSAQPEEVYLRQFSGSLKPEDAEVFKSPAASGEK

[3] = target: T1, Transient receptor potential cation channel subfamily V member 1; experiment: Antagonist activity at human TRPV1 receptor expressed in CHO cells assessed as decrease in pH-induced intracellular 45Ca2+ uptake after 1 hr by […] analysis; type: functional, cell-based
[4] = target: T1, Transient receptor potential cation channel subfamily V member 1; experiment: Antagonist activity at human TRPV1 receptor expressed in CHO cells assessed as decrease in capsaicin-induced intracellular 45Ca2+ uptake after 1 hr by […] analysis; type: functional, cell-based
[5] = target: T2, Transient receptor potential cation channel subfamily V member 1 (Rattus norvegicus, UniProt O35433); experiment: Displacement of [3H]RTX from rat TRPV1 receptor expressed in CHO cells after 60 mins by scintillation counting; type: cell-based
T2 sequence (O35433 whole entry): as the sequence (O35433 whole entry) above

[6] = target: T2, Transient receptor potential cation channel subfamily V member 1; experiment: Antagonist activity at rat TRPV1 receptor expressed in CHO cells assessed as decrease in capsaicin-induced intracellular 45Ca2+ uptake after 1 hr by […] analysis; type: functional, cell-based

## COc1cc(CNC(=S)NCc2ccc(C(C)(C)C)cc2)ccc1NS(C)(=O)=O
[1]
  Efficacy: 84%

## C[C@@H](C(=O)NCc1ccc(C(C)(C)C)cc1)c1ccc(NS(C)(=O)=O)c(F)c1
[2]
  Ki: 2590 nM
[3]
  Ki: 440 nM
[4]
  Ki: 217 nM
[5]; read-out: Ki
  Ki: 750 nM
[6]
  Ki: 186 nM

## CC(C(=O)NCc1ccc(C(C)(C)C)cc1)c1ccc(NS(C)(=O)=O)c(C(=O)NCc2ccccc2)c1 (centres undefined)
[1]
  Efficacy: 23%

## C[C@H](C(=O)NCc1ccc(C(C)(C)C)cc1)c1ccc(NS(C)(=O)=O)c(F)c1
[2]
  Ki: 15.8 nM
[3]
  Ki: 8.3 nM
[4]
  Ki: 0.49 nM
[5]; read-out: Ki
  Ki: 24.4 nM
[6]
  Ki: 4.16 nM

## CC(C(=O)NCc1ccc(C(C)(C)C)cc1)c1ccc(NS(C)(=O)=O)c(F)c1 (racemic)
[2]
  Ki: 89 nM
[3]
  Ki: 12.7 nM
[4]
  Ki: 5.1 nM
[5]; read-out: Ki
  Ki: 46.2 nM
[6]
  Ki: 7.6 nM

## CC(C(=O)NCc1ccc(C(C)(C)C)cc1)c1ccc(NS(C)(=O)=O)c(C(=O)OC(C)(C)C)c1 (centres undefined)
[1]
  Efficacy: 16%

## CC(C(=O)NCc1ccc(C(C)(C)C)cc1)c1ccc(NS(C)(=O)=O)c(N2CCCCC2)c1 (centres undefined)
[5]; cho
  Ki: Active

## Cc1cc(C(C)C(=O)NCc2ccc(C(C)(C)C)cc2)ccc1NS(C)(=O)=O (centres undefined)
[5]; read-out: Ki
  Ki: 32.8 nM
[6]
  Ki: 18.9 nM

## CC(C(=O)NCc1ccc(C(C)(C)C)cc1)c1ccc(NS(C)(=O)=O)c(N2CCOCC2)c1 (centres undefined)
[5]; cho
  Ki: Active

## CC(C(=O)NCc1ccc(C(C)(C)C)cc1)c1ccc(NS(C)(=O)=O)c(N2CCN(C(=O)OC(C)(C)C)CC2)c1 (centres undefined)
[1]
  Efficacy: 13%
[5]; read-out: Ki
  Ki: 7000 nM
